Data reported in article PMC12673148, “Structural basis of protease-activated receptor 2 activation and biased agonism” (Cell Discovery, 2025).
Like-named read-outs stand apart in the source and are kept apart here. Each block holds one molecule with its values, some of them ahead of it.

Assays:
PAR2 [1] = details: cited from earlier work; for PAR2 activation: synthetic peptides mimicking the TL
Text: We used the N-terminal deletion construct of PAR2 (Δ1–48) as the backbone of the receptor to support downstream signaling, as it has lower intrinsic activity than the FL receptor does (Supplementary Fig. S1a).

PAR2 (Gs signaling) [2] = details: full-length (FL) PAR2; cited from earlier work
Text: To mimic trypsin cleavage of PAR2 between R36 and S37, we removed residues 2–36 of PAR2 and allowed native methionine aminopeptidase (MAP) to remove the N-terminal methionine residue via a process termed N-terminal methionine processing that occurs naturally across prokaryotes and eukaryotes. We employed a bioluminescence resonance energy transfer (BRET) assay consisting of G protein-based tricistronic activity sensors (BRET0)[17] to quantitatively assess the constitutive activity of GPCR. This approach allowed us to measure the intrinsic activity of the PAR2 constructs. Compared with the ...

PAR2 (G13 signaling) [3] = test: BRET0 assay, tricistronic G13 sensor, ligand-induced; assay type: cell-based, human
Experimental: (§1) To measure the self-activation of WT and mutant PAR2 in response to G protein activity, a tricistronic activity sensor assay was performed as previously described. The G protein sensor plasmids were obtained from Addgene (https://addgene.org/Gunnar_Schulte/). To measure constitutive activity, AD293 cells in 6-well plates were cotransfected with 500 ng of WT or mutant PAR2 and 500 ng of the G protein sensor construct (pcDNA-Gα-Nluc/Gβ3/cpVenus-Gγ9 fusion combination) with Lipofectamine 2000 (Invitrogen). After being incubated for 24 h at 37 °C in a 5% CO2 atmosphere, the transfected cells were seeded into white 96-well plates and grown for another 24 h. The cells were subsequently washed with HBSS and incubated with a 1:1000 dilution of furimazine stock solution. After incubation for 3 min at 37 °C, the BRET ratio was measured twice consecutively to assess constitutive receptor activity using an EnVision multimode plate reader (PerkinElmer). Nluc emission intensity was selected using a 450/40-nm monochromator, and cpVenus^173 emission was selected using a 535/30-nm monochromator with an integration time of 0.3 s in both channels. The ratio of cpVenus/Nluc intensity was calculated for each well and normalized to that of the vehicle control.
(§2) For ligand-induced BRET0 measurements, transfected cells were plated in 96-well plates for 24 h, after which the cells were washed with HBSS and incubated with a 1:1000 dilution of furimazine stock solution. After being incubated for 3 min at 37 °C, the cells were treated with the addition of ligand solutions or vehicle control. Plates were then subjected to BRET measurements with an EnVision plate reader (PerkinElmer) at 450/40-nm (Nluc-furimazine) and 535/30-nm to detect ligand-induced changes in the BRET signal. Like in the BRET2 assay, the BRET signal was calculated by the ratio of the intensity at 535 nm (cpVenus) to that at 450 nm (Nluc), and the Δnet BRET ratio was calculated by subtracting the intensity of the vehicle control from that of each experimental well. […]

PAR2 (Gi signaling) = test: BRET0 assay, Gi sensor, ligand-induced; assay type: cell-based, human; details: AD293 cells, full-length (FL) PAR2, Fig. S1b
Experimental: as §1, with “The cells were subsequently washed with HBSS and incubated with a 1:1000 dilution of furimazine stock solution.” left out, “Nluc emission intensity was selected using a 450/40-nm monochromator, and cpVenus^173 emission was selected using a 535/30-nm monochromator with an integration time of 0.3 s in both channels.” left out
(§3) For ligand-induced BRET0 measurements, transfected cells were plated in 96-well plates for 24 h, after which the cells were washed with HBSS and incubated with a 1:1000 dilution of furimazine stock solution. […] Plates were then subjected to BRET measurements with an EnVision plate reader (PerkinElmer) at 450/40-nm (Nluc-furimazine) and 535/30-nm to detect ligand-induced changes in the BRET signal. […]

PAR2 (Gs signaling) [4] = test: BRET0 assay, Gs sensor, ligand-induced; assay type: cell-based, human; details: AD293 cells, full-length (FL) PAR2, Fig. S1b
Experimental: as §1, with “The cells were subsequently washed with HBSS and incubated with a 1:1000 dilution of furimazine stock solution.” left out, “Nluc emission intensity was selected using a 450/40-nm monochromator, and cpVenus^173 emission was selected using a 535/30-nm monochromator with an integration time of 0.3 s in both channels.” left out
as §3

PAR2 (Gq signaling) [5] = test: BRET0 assay, tricistronic Gq sensor, ligand-induced; assay type: cell-based, human
Experimental: as §1, §2

PAR2 (Gq signaling) [6] = test: BRET2 Gq dissociation assay; assay type: cell-based, human
Experimental: (§4) In accordance with previous methods, AD293 cells were plated in 6-well plates at 700,000–800,000 cells per well. After 1 day of growth at 37 °C with 5% CO2, the cells in each well were transfected with 100 ng of pcDNA3-PAR2 (Δ1–48) WT or mutants, 100 ng of Gα-RLuc8, 100 ng of Gβ, and 100 ng of Gγ-green fluorescent protein (Gγ-GFP) plasmids with Lipofectamine 2000 (Thermo Fisher Scientific). After being incubated for 1 day, the cells were collected, pelleted by centrifugation, and suspended in DMEM supplemented with 5% (v/v) FBS. The cell suspensions were dispensed in white 96-well plates at a density of 25,000–50,000 cells per well. One day after being plated, the growth medium was carefully aspirated and replaced immediately with 60 μL of 1× Hank’s balanced salt solution (HBSS) containing 20 mM HEPES (pH 7.4; assay buffer), followed by the addition of 10 μL of freshly prepared 50 μM coelenterazine 400a (Yeasen). After a 5-min equilibration period, the cells were treated with 30 μL of drug for an additional 5 min. The plates were then measured in an EnVision plate reader (PerkinElmer) with 395 nm (RLuc8-coelenterazine 400a) and 510 nm (GFP2) emission filters with integration times of 1 s. The BRET signal was calculated by the ratio of the luminescence intensity at 510 nm (GFP) to that at 395 nm (RLuc), and the Δnet BRET ratio was calculated by subtracting the luminescence intensity of the vehicle control from that of each experimental well (510 nm/395 nm). The data were subsequently plotted as a four-parameter sigmoidal concentration–response curve in GraphPad Prism 8.

PAR2 (G13 signaling) [7] = test: NanoBiT G protein dissociation assay, G13; assay type: cell-based, human; details: mean ± SD
Experimental: (§5) Ligand-induced G protein activation was measured by a NanoBiT G protein dissociation assay, as described previously[11],[41]. Briefly, AD293 cells cultured in 6-well plates were transfected with plasmids encoding a large fragment (LgBiT)-containing Gαq or Gα13 subunit (100 ng), a small fragment (SmBiT)-fused Gβ1 subunit (500 ng), and the untagged Gγ2 subunit with a C68S mutation (500 ng) in combination with the WT PAR2 construct (200 ng). After being incubated for 1 day, the transfected cells were collected, pelleted by centrifugation, and suspended in HBSS containing 0.01% bovine serum albumin (Solarbio) and 5 mM HEPES (pH 7.4; assay buffer). The cell suspension was dispensed in white 96-well plates at a volume of 80 μL per well and mixed with 20 μL of 50 μM coelenterazine native (BIOSTNTH). After incubation for 2 h at RT, the baseline luminescence was measured, after which 20 μL of test compound (6×) was added, and subsequent luminescence measurements were performed to detect ligand-induced changes. Luminescence intensity measured from 3 min to 5 min after compound addition was normalized to the initial intensity, and the net luminescence was calculated by subtracting the luminescence ratio of the vehicle control from the normalized luminescence per well. The G protein dissociation signals were fitted to a four-parameter sigmoidal concentration–response curve (GraphPad Prism 8).

PAR2 (G13 signaling) [8] = test: BRET2 G13 dissociation assay; assay type: cell-based, human
Experimental: as §4

PAR2 (Gq signaling) [9] = test: NanoBiT G protein dissociation assay, Gq; assay type: cell-based, human; details: mean ± SD
Experimental: as §5

PAR2 [10] = details: cited from earlier work
PAR2 [11] = details: cited from earlier work; remark: listed apart in the source
[12] = AD293 cells, full-length (FL) PAR2, Fig. S1b
[13] = PAR2 (Δ1–48) WT, AD293 cells, mean ± SD, n = 3, Fig. 5g
[14] = summary statement, assay not named (BRET2, BRET0, NanoBiT used)
[15] = BRET0, AD293 cells, mean ± SD, n = 3, Fig. S5b
[16] = PAR2 (Δ1–48) D62A, AD293 cells, mean ± SD, n = 3, Fig. 5b
[17] = PAR2 D62A, AD293 cells, n = 3, Fig. S5a

Molecule: C/C(=N\NC(=O)[C@H]1C(=O)NC[C@@H]1c1ccccc1)c1cccc(Br)c1 [AC264613]
- PAR2 agonism (PAR2 [1]; reference not given): potent PAR2-selective agonist

Molecule: SLIGKV [SLIGKV (TL), tethered ligand peptide of human PAR2]
- Gs signaling induction (PAR2 (Gs signaling) [2]): incapable of inducing Gs signaling
- G13 signaling activation (PAR2 (G13 signaling) [3]; [12]): activated
- Gi signaling activation (PAR2 (Gi signaling)): activated
- Gs signaling activation (PAR2 (Gs signaling) [4]): had no effect on Gs signaling
- Gq signaling activation (PAR2 (Gq signaling) [5]; [12]): activated

Molecule: SLVGRL-NH2 [synthetic peptide with valine at third TL residue; Gq-biased ligand]
- Gq activity relative to WT peptide (PAR2 (Gq signaling) [6]; [13]): maintained most of the Gq activity of the WT peptide
- Gq signaling (discussion summary) (PAR2 (Gq signaling) [6]; [14]): predominantly activates Gq signaling
- G13 activity (PAR2 (G13 signaling) [7]; NanoBiT, WT PAR2, AD293 cells, n = 3, Fig. S5b): minimal G13 activity
- G13 activity (PAR2 (G13 signaling) [3]; [15]): minimal G13 activity
- G13 activity relative to WT peptide (PAR2 (G13 signaling) [8]; [13]): lost most of the G13 activity
- G13 signaling (discussion summary) (PAR2 (G13 signaling) [8]; [14]): minimal effect on G13 signaling
- Gq versus G13 bias (PAR2 (Gq signaling) [9]; WT PAR2, AD293 cells, n = 3, Fig. S5b): strong bias toward Gq signaling
- Gq versus G13 bias (PAR2 (Gq signaling) [5]; [15]): strong bias toward Gq signaling

- G13 receptor activity, D228A mutant (PAR2 (G13 signaling) [8]; PAR2 (Δ1–48) D228A, AD293 cells, mean ± SD, n = 3, Fig. 2c): strongly decreased receptor activity
- G13 receptor activity, H227A mutant (PAR2 (G13 signaling) [8]; PAR2 (Δ1–48) H227A, AD293 cells, mean ± SD, n = 3, Fig. S3h): decreased receptor activity
- G13 receptor activity, H310A mutant (PAR2 (G13 signaling) [8]; PAR2 (Δ1–48) H310A, AD293 cells, mean ± SD, n = 3, Fig. 2c): strongly decreased receptor activity
- G13 receptor activity, L230A mutant (PAR2 (G13 signaling) [8]; PAR2 (Δ1–48) L230A, AD293 cells, mean ± SD, n = 3, Fig. 2c): strongly decreased receptor activity
- G13 receptor activity, P231A mutant (PAR2 (G13 signaling) [8]; PAR2 (Δ1–48) P231A, AD293 cells, mean ± SD, n = 3, Fig. 2c): strongly decreased receptor activity
- G13 receptor activity, V229A mutant (PAR2 (G13 signaling) [8]; PAR2 (Δ1–48) V229A, AD293 cells, mean ± SD, n = 3, Fig. S3h): decreased receptor activity
- G13 receptor activity, Y311A mutant (PAR2 (G13 signaling) [8]; PAR2 (Δ1–48) Y311A, AD293 cells, mean ± SD, n = 3, Fig. 2c): strongly decreased receptor activity
- G13 receptor activity, Y323A mutant (PAR2 (G13 signaling) [8]; PAR2 (Δ1–48) Y323A, AD293 cells, mean ± SD, n = 3, Fig. 2c): strongly decreased receptor activity
Molecule: SLIGRL-NH2 [mouse tethered-ligand peptide used as synthetic WT peptide]
- Gq activity, D62A mutant (PAR2 (Gq signaling) [6]; [16]): only had a minor effect on Gq activity
- G13 activity, D62A mutant (PAR2 (G13 signaling) [7]; [17]): minimal G13 activity
- G13 activity, D62A mutant (PAR2 (G13 signaling) [3]; PAR2 D62A, AD293 cells, mean ± SD, n = 3, Fig. S5a): minimal G13 activity
- G13 activity, D62A mutant (PAR2 (G13 signaling) [8]; [16]): almost completely abolished G13 activity
- inducing activity versus human ligand SLIGKV-NH2 (PAR2 [1]): much higher inducing activity than the human ligand
- PAR2 activation (PAR2 [1]): activating the receptor independently of protease cleavage
- Gq versus G13 bias, D62A mutant (PAR2 (Gq signaling) [9]; [17]): clearly biased toward Gq signaling
- Gq versus G13 bias, D62A mutant (PAR2 (Gq signaling) [5]; PAR2 D62A, AD293 cells, BRET0, mean ± SD, n = 3, Fig. S5a): clearly biased toward Gq signaling

Molecule: 2-furoyl-LIGRL-NH2
- PAR2 activation (PAR2 [1]): activating the receptor independently of protease cleavage

Molecule: CC[C@H](C)[C@H](NC(=O)[C@H](CC1CCCCC1)NC(=O)c1ccno1)C(=O)N1CCC2(C=Cc3ccccc32)CC1 [GB88]
- PAR2 agonism (PAR2 [1]): partial PAR2 agonist

Molecule: 2f-LAAAAI-NH2 [DF253]
- PAR2-mediated Ca2+ release (PAR2 [10]): trigger PAR2-mediated Ca^2+ release
- ERK1/2 phosphorylation (PAR2 [11]): without inducing ERK1/2 phosphorylation

Molecule: Isox-Cha-Chg-Chg-A-R-NH2 [AY254]
- ERK1/2 phosphorylation (PAR2 [11]): ERK-biased agonist

Molecule: SLIGKV-NH2 [human tethered-ligand synthetic peptide]
- PAR2 activation (PAR2 [1]): activating the receptor independently of protease cleavage

Molecule: SLAGRL-NH2
- efficacy (PAR2 [1]): significantly lower efficacy

B1: NE: neutrophil elastase, protease cleaving PAR2 between S67↓V68 (protein, UniProt P08246 30-267, looked up)
Neutrophil elastase: IVGGRRARPHAWPFMVSLQLRGGHFCGATLIAPNFVMSAAHCVANVNVRAVRVVLGAHNLSRREPTRQVFAVQRIFENGYDPVNLLNDIVILQLNGSATINANVQVAQLPAQGRRLGNGVQCLAMGWGLLGRNRGIASVLQELNVTVVTSLCRRSNVCTLVRGRQAGVCFGDSGSPLVCNGLIHGIASFVRGGCASGLYPDAFAPVAQFVNWIDSIIQRSEDNPCPHPRDPDPASRTH
- Ca2+ release on PAR2 cleavage (PAR2 [10]; cleavage at E56↓T57 (CS) or S67↓V68 (NE)): not Ca^2+ release
- ERK1/2 activation on PAR2 cleavage (PAR2 [11]; cleavage at S67↓V68): activates ERK1/2
